Results as given in patent US20030134859A1 (SANKYO COMPANY, LIMITED, priority 2000, published 2003).
Read-outs that look alike come from different tables or passages of the source.

Key:
Rat white adipocytes = test: Inhibition of the differentiation of adipocytes (Oil Red O); type: cell-based; conditions: 100 nM test compound, 5 days, Oil Red O ABS550, control = 100%, blank = 0%, Table 3; for activity at 0.1 µM: Rattus norvegicus, Adipocyte, 120 h, read-out: Rate of Differentiation (%)
Experimental: Rat white adipocytes contained in the white adipocyte culture kit purchased from HOKUDO were used. As the medium for proliferation and for differentiation-inducing, the medium contained in the white adipocyte culture kit purchased from HOKUDO was used. The cells in the present experiment were cultured in a CO2 incubator (37° C., 95% R.H., 5% CO2).
Immediately after arrival of the purchased cells, all medium for transportation was discarded and replaced with 5 ml of proliferation medium (/25 cm^2-flask) and the cells were cultured for one day. Then, a cell suspension was prepared with proliferation medium so as to be 83,000 cells/mL, and the cell suspension was plated into a type I 96-well collagen-coated microplate (SUMITOMO BAKELITE CO., ltd.) so as to be 5,000 cells/well (60 μL/well).
On the next day, all the proliferation medium was discarded and replaced with 147 μL/well of differentiation-inducing medium. Further, 1) in the group treated with the test compound, 3 μL/well of the solution, in which a test compound (100 μM) was dissolved in DMSO solution and diluted with differentiation-inducing medium by 20 times (final concentration of the test compound: 100 nM, final concentration of DMSO solution: 0.1% (v/v)), were added to the well where the cells were plated. 2) In the control group, 3 μL/well of DMSO solution that was diluted with differentiation-inducing medium by 20 times (final concentration of DMSO: 0.1% (v/v)) were added to the well where the cells were plated. Further, 3) in the blank group, 3 μL/well of DMSO solution that was diluted with differentiation-inducing medium by 20 times (final concentration: 0.1% (v/v)), was added to the blank well.
After culturing for 5 days, all differentiation-inducing medium was discarded and replaced with 60 μL of 10% (v/v) formaldehyde solution (for fixation) in each well and the cells were kept stationary for 20 min at room temperature. After this, the fixative solution was discarded and replaced with 60 μL of 0.2% (v/v) Triton X (Sigma-Aldrich Japan K. K.) solution in each well and kept stationary for 5 min at room temperature. Then all Triton X solution was discarded and replaced with 60 μL of 60% (v/v) isopropanol solution containing dissolved Oil Red O (Sigma-Aldrich Japan K. K.) so as to be 0.3%, which was adipose tissue staining solution, and the well was left stationary for 10 min at room temperature. After the adipose tissue staining solution was discarded, the well was washed twice with 60 JIL of 60% isopropanol solution. Then, 100 μL of the DMSO solution were added to each well and stirred for 5 min at room temperature, The absorbance was measured at 550 nm (ABS550) with a multi-plate reader (LabSystems), and the stained amount with Oil Red O was determined. The measured level at ABS550 in the control group was defined as 100%, while the level at ABS550 in the blank group was defined as 0%. The differentiation rate (%) of the adipocytes treated with the test compound was calculated.

leptin production = test: Enhancing activity for leptin production in adipocytes (ELISA); type: cell-based, rat; conditions: Rattus norvegicus, Adipocyte, leptin concentration as % of control group, read-out: Facilitating activity to produce leptin; for activity at 0.001 µM: 1 nm; for activity at 0.01 µM: 10 nm; for activity at 0.1 µM: 100 nm
Experimental: Hanks solution was used for collection of adipose tissue. The Hanks solution was prepared by filtration of a mixed solution (pH: 7.5) of 120 mM NaCl, 4.8 mM KCl, 0.74 mM MgSO4, 0.30 mM Na2HPO4, 0.40 mM KH2PO4, 20 mM HEPES, 0.05% (w/v) glucose, 2% (w/v) BSA (Sigma-Aldrich Japan K. K., Cat. No. A7888), 0.95 mM CaCl2, 4.17 mM NaHCO3 and 1% (v/v) penicillin-streptomycin liquid (GIBCO BRL, Cat. No. 15140-122). The adipocytes were cultured in Dulbecco's modified Eagle's medium (GIBCO BRL, Cat. No. 11995-040) mixed with DMEM/F-12 (GIBCO BRL, Cat. No. 11320-033) at a ratio of 1:1, and added 0.2% (v/v) Hanks solution, 0.2 μg/L sodium selenite (GIBCO BRL, Cat. No. 13012-018), 0.002% (v/v) ethanolamine, 25 mM HEPES and 1% (v/v) penicillin-streptomycin liquid (GIBCO BRL, Cat. No. 15140-122). As many as possible of the other reagents used were special grade. In this experiment, the cells were cultured in a CO2 incubator (37° C., 95% humidity, 5% CO2).
Male Wistar Imamichi rats of 6 weeks old were sacrificed by bleeding following decapitation, and adipose tissue was removed from the epididymis and sectioned after the vessels were removed in warmed Hanks solution at 37° C. and were weighed. One (1) mL of Hanks solution containing 10 mg collagenase (Wako Pure Chemical Industries, Ltd., 034-10533) was added to the adipose tissue prepared. The solution was transferred into a tube having a volume of 50 mL, and the cells were evenly dispersed by incubation under gentle shaking at 37° C., 90 rpm, for 50 min. Then 20 mL of Hanks solution were added and filtrated through Nylon-mesh with a mesh diameter of 200 μm for removal of undigested tissue pieces. The floating adipocytes were separated from sediments and substances located in the lower layer by centrifugation at 1,000 rpm for 1 min at room temperature. The sediment and 22 mL of the low layer were pulled out with a probe, and the floating adipocytes were recovered. This procedure was repeated twice with Hanks solution and for 4 times with the culture medium. After these procedures the adipocytes were suspended in the culture medium at a volume of 60 mL per 1 g of the adipose tissue weighed previously. 100 μL of the suspended solution were plated in each well of a 96-well microplate (ASAHI TECHNO GLASS Corp.) In the group treated with the test compound, 1 μL/well of DMSO solution containing the dissolved the test compound at concentrations of 200 μM, 20 μM, 2 μM and 0.2 μM (final concentrations of the test compound: 1 μM, 100 nM, 10 nM and 1 nM, respectively) was plated in each of the well. In the control group, 1 μL/well of DMSO (final concentration: 0.1% (v/v)) was plated in each well. The plate was placed stationary in a CO2 incubator for 1 hr or longer, and the contents in the solution were equilibrated at 37° C. After they were equilibrated, the solution in each well was stirred with a magnetic stirrer in a water bath and the suspended solution maintained at 37° C. was plated into each well of the plate at 100 μL/well. After incubation of the cells for 24 hr, the suspended solution of cells was filtrated through a filter for the microplate, MultiScreen (MILLOPORE, MDV-N65). The concentration of leptin in the filtrated solution was determined with ELISA methods by using a Rat Leptin Determination Kit-IBL (Immuno-Biological Laboratories Co., Ltd., Cat. No. 17195). The facilitating activity of the compound to produce leptin was calculated from the following equation based on the concentration of leptin determined.
Facilitating Activity of the Compound to Produce Leptin (%)=(A/B)×100
A: Concentration of Leptin in the Treated Group with the Test Compound.
B: Concentration of Leptin in the Control Group.

CC(C)(C)OC(=O)N1CCN(c2ccc(NC(=O)c3cc([N+](=O)[O-])ccc3Cl)cc2)CC1 [Example 132, N-[4-(4-tert-Butoxycarbonylpiperazin-1-yl)phenyl]-(2-chloro-5-nitrophenyl)carboxamide]
activity at 0.1 µM (Rat white adipocytes): 26.9%
activity at 1 µM (leptin production; 24 h): 127%
activity at 0.001 µM (leptin production; 24 h): 123%
activity at 0.01 µM (leptin production; 24 h): 137%
activity at 0.1 µM (leptin production; 24 h): 119%

O=C(Nc1ccc(-c2ccc(NC(=O)c3cc([N+](=O)[O-])ccc3Cl)cc2)cc1)c1cc([N+](=O)[O-])ccc1Cl [Example 163, 4-[4-[(2-Chloro-5-nitrophenyl)carbonylamino)phenyl]phenyl-(2-chloro-5-nitrophenyl)carboxamide]
activity at 0.1 µM (Rat white adipocytes): 48%
activity at 1 µM (leptin production; 24 hr): 124%
activity at 0.001 µM (leptin production; 24 hr): 108%
activity at 0.01 µM (leptin production; 24 hr): 117%
activity at 0.1 µM (leptin production; 24 hr): 118%

O=C(Nc1ccc(-c2ccc(-n3cccc3)cc2)cc1)c1cc([N+](=O)[O-])ccc1Cl [Example 186, N-[4-[4-(Pyrrol-1-yl)phenyl]phenyl]-(2-chloro-5-nitrophenyl)carboxamide]
activity at 0.1 µM (Rat white adipocytes): 56.3%
activity at 1 µM (leptin production; 24 h): 133%
activity at 0.01 µM (leptin production; 24 h): 118%
activity at 0.1 µM (leptin production; 24 h): 117%

CCCCCCN(CCC)c1ccc(-c2ccc(NC(=O)c3cc([N+](=O)[O-])ccc3Cl)cc2)cc1 [Example 198, N-[4-[4-(N-Hexyl-N-propylamino)phenyl]phenyl]-(2-chloro-5-nitrophenyl)carboxamide]
activity at 0.1 µM (Rat white adipocytes): 48.2%
activity at 1 µM (leptin production; 24 h): 111%
activity at 0.1 µM (leptin production; 24 h): 111%

CN1c2ccccc2N=C(c2ccc(NC(=O)c3cc([N+](=O)[O-])ccc3Cl)cc2)c2cc3c(cc21)C(C)(C)CCC3(C)C [Example 240, N-[4-(5,7,7,10,10-Pentamethyl-7,8,9,10-tetrahydro-5H-5,13-diazabenzo[4,5]cyclohepta[1,2-b]naphthalen-12-yl)phenyl]-(2-chloro-5-nitrophenyl)carboxamide]
activity at 0.1 µM (Rat white adipocytes): 35.2%

NC(=O)Nc1ccc(-c2ccc(NC(=O)c3cc([N+](=O)[O-])ccc3Cl)cc2)cc1 [Example 243, N-[4-[4-(Aminocarbonylamino)phenyl]phenyl]-(2-chloro-5-nitrophenyl)carboxamide]
activity at 0.1 µM (Rat white adipocytes): 41.1%

COc1cccc(NC(=O)Nc2ccc(-c3ccc(NC(=O)c4cc([N+](=O)[O-])ccc4Cl)cc3)cc2)c1 [Example 247, N-[4-[4-[(3-Methoxyphenyl)aminocarbonylamino]phenyl]phenyl]-(2-chloro-5-nitrophenyl)carboxamide]
activity at 0.1 µM (Rat white adipocytes): 54%

O=C(NC(=S)Nc1ccc(-c2ccc(NC(=O)c3cc([N+](=O)[O-])ccc3Cl)cc2)cc1)c1ccccc1 [Example 250, N-[4-[4-(Benzoylaminothiocarbonylamino)phenyl]phenyl]-(2-chloro-5-nitrophenyl)carboxamide]
activity at 0.1 µM (Rat white adipocytes): 40.8%

Nc1nc(-c2ccc(NC(=O)c3cc([N+](=O)[O-])ccc3Cl)cc2)cs1 [Example 255, N-[4-(2-Aminothiazol-4-yl)phenyl]-(2-chloro-5-nitrophenyl)carboxamide]
activity at 0.1 µM (Rat white adipocytes): 55%

CC(C)(C)OC(=O)Nc1ccc2nc(NC(=O)c3cc([N+](=O)[O-])ccc3Cl)sc2c1 [Example 260, N-[(6-tert-Butoxycarbonylamino)benzothiazol-2-yl]-(2-chloro-5-nitrophenyl)carboxamide]
Rate of Differentiation (%) (Rat white adipocytes): 84.6%

CC(=O)Nc1nc(-c2ccc(NC(=O)c3cc([N+](=O)[O-])ccc3Cl)cc2)cs1 [Example 265, N-[4-(2-Acetylaminothiazol-4-yl)phenyl]-(2-chloro-5-nitrophenyl)carboxamide]
activity at 0.1 µM (Rat white adipocytes): 80.8%

CC(=O)Nc1nc(-c2cccc(NC(=O)c3cc([N+](=O)[O-])ccc3Cl)c2)cs1 [Example 266, N-[3-(2-Acetylaminothiazol-4-yl)phenyl]-(2-chloro-5-nitrophenyl)carboxamide]
activity at 0.1 µM (Rat white adipocytes): 63.5%

CCOC(=O)NC(=S)NCCc1ccc(NC(=O)c2cc([N+](=O)[O-])ccc2Cl)cc1 [Example 272, N-[4-(2-Ethoxycarbonylaminothiocarbonylaminoethyl)phenyl]-(2-chloro-5-nitrophenyl)carboxamide]
activity at 0.1 µM (Rat white adipocytes): 41.7%

O=C(Nc1cccc(CCO)c1)c1cc([N+](=O)[O-])ccc1Cl [Example 275, N-[3-(2-Hydroxyethyl)phenyl]-(2-chloro-5-nitrophenyl)carboxamide]
activity at 0.1 µM (Rat white adipocytes): 47.9%

N-[4-(3-Methanesulfonylaminophenyl)thioazol-2-yl]-(2-chloro-5-nitrophenyl)carboxamide [Example 278]
Rate of Differentiation (%) (Rat white adipocytes): 68.6%
